US11351178B2, “Selective HDAC6 inhibitors” (ITALFARMACO S.P.A., priority 2017, dated 2022)
Where two headings read alike, the source gives them in different places.

Legend:
HDAC5 = molecular target: T1, HDAC5 (Homo sapiens, UniProt Q9UQL6); assay: Enzymatic test HDAC5; format: biochemical; conditions: Table 3
T1 construct: purchased BPS 50005
Description: (§1) After a period of incubation at 30° C. (incubation times vary for different isoforms and are shown in table 1) 25 μL of solution containing the substrate were added. As substrate, FLUOR DE LYS® deacetylase substrate (Enzo Life Sciences, cat #BML-K1104, FdL), FLUOR DE LYS®-Green substrate (Enzo Life Sciences, cat #BML-K1572 FdL_G) and trifluoroacetyl-L-lysine (Tfal)-2× concentrated solution in 25 mM Tris-HCl, pH 8, 130 mM NaCl 0.05% Tween-20 10% glycerol) were used. Following a reaction period at 30° C.

Stability in rat plasma = format: in vitro ADME; conditions: after 4 hours, 37° C.
Procedure, shortened: (§2)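 Compounds incubated at 37° C in rat or human plasma at 50 μM (UV/HPLC) or 1 or 2 μM (LC-MS/MS) for 0–4 h. Reaction stopped with acidified acetonitrile on ice; percent remaining versus initial amount and plasma half-life calculated.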

HDAC1 = molecular target: T2, HDAC1 (Homo sapiens, UniProt Q13547); assay: Enzymatic test HDAC1; format: biochemical; conditions: Table 3
T2 construct: purchased BPS 50051

HDAC7 = molecular target: T3, HDAC7 (Homo sapiens, UniProt Q8WUI4); assay: Enzymatic test HDAC7; format: biochemical; conditions: Table 3
T3 construct: purchased BPS 50007
T3 sequence (Q8WUI4 518-952 limits assumed): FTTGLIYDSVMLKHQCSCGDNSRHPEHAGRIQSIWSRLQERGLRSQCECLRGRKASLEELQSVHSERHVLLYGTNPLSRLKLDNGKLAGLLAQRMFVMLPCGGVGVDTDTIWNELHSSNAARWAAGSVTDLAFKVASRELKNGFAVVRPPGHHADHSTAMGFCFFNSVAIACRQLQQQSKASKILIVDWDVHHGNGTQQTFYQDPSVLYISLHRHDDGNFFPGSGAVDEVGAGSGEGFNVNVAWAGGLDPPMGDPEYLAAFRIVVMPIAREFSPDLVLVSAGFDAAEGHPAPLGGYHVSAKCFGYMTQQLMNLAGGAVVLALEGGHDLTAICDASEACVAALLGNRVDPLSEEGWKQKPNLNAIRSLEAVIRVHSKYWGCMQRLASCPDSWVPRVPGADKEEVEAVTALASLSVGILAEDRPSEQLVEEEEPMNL
Description: as §1

recombinant human HDAC6 = molecular target: T4, recombinant human HDAC6 (Homo sapiens, UniProt Q9UBN7); assay: Enzymatic screening on recombinant human HDAC6; format: biochemical; conditions: read-out: HDAC6 IC50
T4 sequence (Q9UBN7 1-1215): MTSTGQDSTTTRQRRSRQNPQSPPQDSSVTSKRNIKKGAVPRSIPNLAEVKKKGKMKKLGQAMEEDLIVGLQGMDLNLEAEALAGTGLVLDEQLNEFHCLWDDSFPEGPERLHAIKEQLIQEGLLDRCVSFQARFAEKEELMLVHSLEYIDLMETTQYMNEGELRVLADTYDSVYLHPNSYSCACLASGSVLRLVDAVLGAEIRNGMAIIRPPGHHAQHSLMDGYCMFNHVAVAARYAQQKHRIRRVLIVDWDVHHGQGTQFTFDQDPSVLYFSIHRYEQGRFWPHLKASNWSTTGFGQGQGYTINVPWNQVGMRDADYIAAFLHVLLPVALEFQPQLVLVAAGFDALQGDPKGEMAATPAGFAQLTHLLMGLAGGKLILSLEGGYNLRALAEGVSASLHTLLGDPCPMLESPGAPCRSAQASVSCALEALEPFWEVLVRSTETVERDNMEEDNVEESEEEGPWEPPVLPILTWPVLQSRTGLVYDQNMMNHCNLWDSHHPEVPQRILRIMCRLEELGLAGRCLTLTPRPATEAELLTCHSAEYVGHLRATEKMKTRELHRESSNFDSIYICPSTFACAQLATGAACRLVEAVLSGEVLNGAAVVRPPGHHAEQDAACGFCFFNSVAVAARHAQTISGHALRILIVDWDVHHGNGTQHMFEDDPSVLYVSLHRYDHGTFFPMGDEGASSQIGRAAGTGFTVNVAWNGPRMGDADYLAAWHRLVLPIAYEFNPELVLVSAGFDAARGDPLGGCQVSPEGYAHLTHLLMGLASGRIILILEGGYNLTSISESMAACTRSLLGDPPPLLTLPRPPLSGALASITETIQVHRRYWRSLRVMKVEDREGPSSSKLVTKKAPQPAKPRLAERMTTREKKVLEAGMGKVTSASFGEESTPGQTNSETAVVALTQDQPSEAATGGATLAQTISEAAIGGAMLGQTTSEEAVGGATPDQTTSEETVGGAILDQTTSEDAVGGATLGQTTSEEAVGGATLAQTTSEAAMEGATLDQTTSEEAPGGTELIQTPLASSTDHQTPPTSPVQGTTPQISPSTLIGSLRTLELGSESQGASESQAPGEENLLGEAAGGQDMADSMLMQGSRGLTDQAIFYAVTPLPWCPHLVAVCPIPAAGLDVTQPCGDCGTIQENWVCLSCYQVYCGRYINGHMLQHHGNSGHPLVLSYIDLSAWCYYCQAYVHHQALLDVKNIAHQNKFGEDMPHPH
Procedure, shortened: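 Buffer for substrate addition: 25 mM Tris-HCl pH 8, 130 mM NaCl, 0.05% Tween-20, 10% glycerol, substrate 2× concentrated (FdL, FdL-Green or trifluoroacetyl-lysine). Recombinant human HDAC was preincubated with compound at 30 °C beforehand, timing isoform-dependent, and the reaction was likewise run at 30 °C.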

[1] = Stability to Phase I metabolism in rat S9 liver fraction; format: in vitro ADME; conditions: after 90 min, 37° C.
Procedure, shortened: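 Compounds were incubated with rat or human liver S9 fraction at 37 °C for up to 90 min. Reactions were quenched on ice with acidified acetonitrile and analysed by HPLC-UV or LC-MS/MS. Percent remaining versus time zero and intrinsic clearance were calculated.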

[2] = Stability in human plasma; format: in vitro ADME; conditions: after 4 hours, 37° C.
Procedure, shortened: as §2

T1 sequence (Q9UQL6 656-1122 limits assumed): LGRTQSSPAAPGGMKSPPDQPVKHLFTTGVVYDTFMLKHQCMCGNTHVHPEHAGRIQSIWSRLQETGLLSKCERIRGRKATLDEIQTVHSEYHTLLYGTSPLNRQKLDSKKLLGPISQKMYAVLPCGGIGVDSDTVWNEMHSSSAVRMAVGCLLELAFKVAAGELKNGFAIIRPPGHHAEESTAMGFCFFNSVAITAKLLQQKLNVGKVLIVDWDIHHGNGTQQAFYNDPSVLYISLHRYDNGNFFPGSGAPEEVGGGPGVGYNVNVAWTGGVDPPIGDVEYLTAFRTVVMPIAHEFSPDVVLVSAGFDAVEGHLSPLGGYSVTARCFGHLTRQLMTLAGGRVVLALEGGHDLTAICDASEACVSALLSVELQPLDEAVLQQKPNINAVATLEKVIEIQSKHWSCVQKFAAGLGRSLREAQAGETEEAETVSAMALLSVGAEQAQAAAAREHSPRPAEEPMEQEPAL
T2 sequence (Q13547 whole entry): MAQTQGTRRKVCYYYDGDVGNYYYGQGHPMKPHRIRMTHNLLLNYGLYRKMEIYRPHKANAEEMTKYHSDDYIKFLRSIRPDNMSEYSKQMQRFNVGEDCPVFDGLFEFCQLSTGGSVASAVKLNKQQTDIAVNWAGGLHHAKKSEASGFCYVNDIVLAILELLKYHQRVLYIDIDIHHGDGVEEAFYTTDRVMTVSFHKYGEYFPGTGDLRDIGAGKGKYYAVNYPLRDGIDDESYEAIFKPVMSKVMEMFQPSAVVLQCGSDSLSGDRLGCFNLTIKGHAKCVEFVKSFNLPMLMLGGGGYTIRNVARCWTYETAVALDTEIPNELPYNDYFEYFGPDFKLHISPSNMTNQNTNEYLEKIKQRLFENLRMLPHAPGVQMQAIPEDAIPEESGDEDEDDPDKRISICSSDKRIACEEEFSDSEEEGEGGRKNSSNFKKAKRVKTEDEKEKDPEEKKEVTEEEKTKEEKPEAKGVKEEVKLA

Row | SMILES | IC50 (HDAC5) [nM] | residual percentage in rat plasma (Stability in rat plasma) [%] | IC50 (HDAC1) [nM] | IC50 (HDAC7) [nM] | IC50 (recombinant human HDAC6; Table 2) [nM] | IC50 (recombinant human HDAC6; Table 3) [nM] | residual percentage in rat S9 fraction [1] [%] | residual percentage in human plasma [2] [%]
1 | CN(C)S(=O)(=O)c1cccc(-c2nnn(Cc3ccc(C(=O)NO)cc3)n2)c1 [comp. 59, 4-[[5-[3-(dimethylsulfamoyl)phenyl]tetrazol-2-yl]methyl]benzenecarbohydroxamic acid] | 4120 | 53 | 353 | 820 | 7 | 7 | 8 | –
2 | CN(C)c1cccc(-c2nnc(Sc3ccc(C(=O)NO)cc3)n2C)c1 [comp. 77, 4-[[5-[3-(dimethylamino)phenyl]-4-methyl-1,2,4-triazol-3-yl]sulfanyl]benzenecarbohydroxamic acid] | 4470 | – | 581 | 1360 | 17 | 17 | 40 | –
3 | O=C(NO)c1cc(F)c(Cn2nnnc2-c2ccccn2)c(F)c1 [comp. 13, 3,5-difluoro-N-hydroxy-4-((5-(pyridin-2-yl)-1H-tetrazol-1-yl)methyl)benzamide] | 512 | 96.7 | 2890 | 623 | 4 | 4 | 90.9 | 94
4 | O=C(NO)c1cc(F)c(Cn2nnc(-c3scc4c3OCCO4)n2)c(F)c1 [comp. 79, 4-[[5-(2,3-dihydrothieno[3,4-b][1,4]dioxin-5-yl)tetrazol-2-yl]methyl]-3,5-difluoro-benzenecarbohydroxamic acid] | 687 | 99 | 2320 | 1310 | 8 | 8 | 73 | –
5 | Cn1c(Sc2c(F)cc(C(=O)NO)cc2F)nnc1C(c1ccccc1)c1ccccc1 [comp. 98, 4-[(5-benzhydryl-4-methyl-1,2,4-triazol-3-yl)sulfanyl]-3,5-difluoro-benzenecarbohydroxamic acid] | 2660 | 89 | 1010 | 1990 | 61 | 61 | 88 | –
6 | O=C(NO)c1ccc(Cn2nnc(-c3ccccc3F)n2)cc1 [comp. 33, 4-[[5-(2-fluorophenyl)tetrazol-2-yl]methyl]benzenecarbohydroxamic acid] | 2360 | 52 | 232 | 608 | 3 | 3 | 2 | –
7 | O=C(NO)c1ccc(Cn2nnc(-c3cccs3)n2)cc1 [comp. 50, 4-[[5-(2-thienyl)tetrazol-2-yl]methyl]benzenecarbohydroxamic acid] | 1950 | – | 254 | 611 | 2 | 2 | – | –
